The data set relates to rodent lifetime carcinogenesis bioassay, tumor incidence TD50. Put plainly: chronic cancer bioassays in animals – CPDB, compiled studies (AID 1745844).

Where “and” joins values, the source holds several entries; their conditions need not be identical. Equal entries are not always repeated. Calls of active or inactive are those of the source. No rule for the calls is given here.

For `CC(C)CN(N=O)C(N)=O`, the TD50 (in general, the dose at which the toxic effect under study appears in half of the subjects) (rat, strain Donryu, females, in drinking water, site: any site (literature study), lesion: several types, types named in the paper, dosed 76 weeks, study length 76 weeks) worked out at 4.7 mg/kg/day; the TD50 (rat, strain Donryu, females, in drinking water, site: digestive tract, lesion: several types, types named in the paper, dosed 76 weeks, study length 76 weeks) is 4.73 mg/kg/day; the TD50 (rat, strain Donryu, females, in drinking water, site: duodenum, lesion: several types, types named in the paper, dosed 76 weeks, study length 76 weeks) was 7.22 mg/kg/day; the TD50 (rat, strain Donryu, females, in drinking water, site: liver, lesion: several types, types named in the paper, dosed 76 weeks, study length 76 weeks) was 1220 mg/kg/day; the TD50 (rat, strain Donryu, females, in drinking water, site: stomach, glandular, lesion: several types, types named in the paper, dosed 76 weeks, study length 76 weeks) is 23.1 mg/kg/day.

On to `O=[N+]([O-])c1ccc(O)c([N+](=O)[O-])c1`, for which, where the note is “mouse, strain DBA, females, in feed, site: mammary gland, lesion: carcinoma, dosed 90 weeks, study length 90 weeks”, the carcinogen call was “negative (inactive)”.

On to `O=[N+]([O-])c1ccc2ncccc2c1`, for which the carcinogen call (rat, strain Fischer 344, females, in feed, site: liver, lesion: hyperplastic nodule, dosed 104 weeks, study length 104 weeks) was “negative (inactive)”. Under “rat, strain Fischer 344, males, in feed, site: liver, lesion: hyperplastic nodule, dosed 104 weeks, study length 104 weeks”, the TD50 is 267 mg/kg/day (inactive).

For the compound `CN(C)N=Nc1nc[nH]c1C(N)=O`, the TD50 by setting is: (mouse, strain Swiss, females, i.p., site: all sites, lesion: lymphosarcoma, dosed 26 weeks, study length 61 weeks) 8 mg/kg/day; (mouse, strain Swiss, females, i.p., site: any site (literature study), lesion: benign tumor, dosed 26 weeks, study length 61 weeks) 7.03 mg/kg/day; (mouse, strain Swiss, females, i.p., site: any site (literature study), lesion: malignant tumor, dosed 26 weeks, study length 61 weeks) 0.807 mg/kg/day; (mouse, strain Swiss, females, i.p., site: lung, lesion: several types, types named in the paper, dosed 26 weeks, study length 61 weeks) 0.595 mg/kg/day; (mouse, strain Swiss, females, i.p., site: spleen, lesion: hemangioendothelioma, dosed 26 weeks, study length 61 weeks) 14.5 mg/kg/day; (mouse, strain Swiss, females, i.p., site: uterus, lesion: adenocarcinoma, dosed 26 weeks, study length 61 weeks) 3.2 mg/kg/day. For the same compound, the TD50 by setting is: (mouse, strain Swiss, males, i.p., site: all sites, lesion: lymphatic leukemia, dosed 26 weeks, study length 78 weeks) 13 mg/kg/day; (mouse, strain Swiss, males, i.p., site: all sites, lesion: lymphosarcoma, dosed 26 weeks, study length 78 weeks) 16.1 mg/kg/day; (mouse, strain Swiss, males, i.p., site: any site (literature study), lesion: benign tumor, dosed 26 weeks, study length 78 weeks) 10.6 mg/kg/day; (mouse, strain Swiss, males, i.p., site: any site (literature study), lesion: malignant tumor, dosed 26 weeks, study length 78 weeks) 1.54 mg/kg/day; (mouse, strain Swiss, males, i.p., site: any site (literature study), lesion: several types, types named in the paper, dosed 26 weeks, study length 78 weeks) 0.813 mg/kg/day; (mouse, strain Swiss, males, i.p., site: liver, lesion: several types, types named in the paper, dosed 26 weeks, study length 78 weeks) 98.8 mg/kg/day. Also, the TD50 is 2.57 mg/kg/day (mouse, strain Swiss, males, i.p., site: lung, lesion: several types, types named in the paper, dosed 26 weeks, study length 78 weeks); 5.17 mg/kg/day (mouse, strain Swiss, males, i.p., site: spleen, lesion: several types, types named in the paper, dosed 26 weeks, study length 78 weeks); 0.71 mg/kg/day (rat, strain Sprague-Dawley, females, in feed, site: mammary gland, lesion: adenofibroma, dosed 46 weeks, study length 60 weeks); 4.21 mg/kg/day (rat, strain Sprague-Dawley, females, in feed, site: thymus gland, lesion: lymphosarcoma, dosed 46 weeks, study length 60 weeks); 6.55 mg/kg/day (rat, strain Sprague-Dawley, females, in feed, site: uterus, lesion: leiomyosarcoma, dosed 46 weeks, study length 60 weeks).

`OCCN(CCO)c1nc(-c2cccs2)nc2ccccc12`: the TD50 (rat, strain Sprague-Dawley, females, in feed, site: any site (literature study), lesion: several types, types named in the paper, dosed 46 weeks, study length 66 weeks) amounted to 60.1 mg/kg/day.

On to `COc1nn(CSP(=S)(OC)OC)c(=O)s1`, for which the carcinogen call (mouse, strain Charles River CD1, females, in feed, site: liver, lesion: hepatocellular adenoma, dosed 100 weeks, study length 100 weeks) is “negative (inactive)”. The TD50 is, setting by setting: (mouse, strain Charles River CD1, females, in feed, site: liver, lesion: hepatocellular carcinoma, dosed 100 weeks, study length 100 weeks) 184 mg/kg/day (inactive); (mouse, strain Charles River CD1, females, in feed, site: liver, lesion: several types, types named in the paper, dosed 100 weeks, study length 100 weeks) 16200 mg/kg/day (inactive); (mouse, strain Charles River CD1, males, in feed, site: liver, lesion: hepatocellular adenoma, dosed 100 weeks, study length 100 weeks) 17.2 mg/kg/day; (mouse, strain Charles River CD1, males, in feed, site: liver, lesion: hepatocellular carcinoma, dosed 100 weeks, study length 100 weeks) 21.8 mg/kg/day; (mouse, strain Charles River CD1, males, in feed, site: liver, lesion: several types, types named in the paper, dosed 100 weeks, study length 100 weeks) 6.04 mg/kg/day.

On to `COP(=O)(OC)OC(=CCl)c1cc(Cl)c(Cl)cc1Cl`, for which the TD50 (mouse, strain B6C3F1, females, in feed, site: any site (literature study), lesion: several types, types named in the paper, dosed 80 weeks, study length 92 weeks) amounted to 7880 mg/kg/day; the TD50 (mouse, strain B6C3F1, females, in feed, site: kidney, lesion: several types, types named in the paper, dosed 103 weeks, study length 103 weeks) was 32100 mg/kg/day; the TD50 (mouse, strain B6C3F1, females, in feed, site: liver, lesion: hepatocellular adenoma + hepatocellular carcinoma + neoplastic nodule, dosed 80 weeks, study length 92 weeks) was 905 mg/kg/day; the TD50 (mouse, strain B6C3F1, females, in feed, site: liver, lesion: hepatocellular carcinoma + neoplastic nodule, dosed 80 weeks, study length 90 weeks) is 1070 mg/kg/day; the TD50 (mouse, strain B6C3F1, females, in feed, site: liver, lesion: hepatocellular carcinoma + neoplastic nodule, dosed 80 weeks, study length 92 weeks) was 905 mg/kg/day; the TD50 (mouse, strain B6C3F1, females, in feed, site: liver, lesion: hepatocellular carcinoma, dosed 103 weeks, study length 103 weeks) was 12400 mg/kg/day and 8990 mg/kg/day. Further, the TD50 (mouse, strain B6C3F1, females, in feed, site: liver, lesion: neoplastic nodule, dosed 80 weeks, study length 90 weeks) is 1380 mg/kg/day; the TD50 (mouse, strain B6C3F1, females, in feed, site: liver, lesion: several types, types named in the paper, dosed 103 weeks, study length 103 weeks) is 10200 mg/kg/day and 6330 mg/kg/day; the TD50 (mouse, strain B6C3F1, females, in feed, site: lung, lesion: alveolar/bronchiolar adenoma + alveolar/bronchiolar carcinoma, dosed 80 weeks, study length 92 weeks) amounted to 7790 mg/kg/day; the TD50 (mouse, strain B6C3F1, males, in feed, site: any site (literature study), lesion: several types, types named in the paper, dosed 80 weeks, study length 92 weeks) turned out to be 295 mg/kg/day; the TD50 (mouse, strain B6C3F1, males, in feed, site: kidney, lesion: several types, types named in the paper, dosed 103 weeks, study length 103 weeks) is 4420 mg/kg/day; the TD50 (mouse, strain B6C3F1, males, in feed, site: kidney, lesion: tubular adenoma, dosed 103 weeks, study length 103 weeks) is 37600 mg/kg/day. Also, the TD50 reads like this: (mouse, strain B6C3F1, males, in feed, site: kidney, lesion: tubular carcinoma, dosed 103 weeks, study length 103 weeks) 5260 mg/kg/day; (mouse, strain B6C3F1, males, in feed, site: liver, lesion: hepatocellular adenoma + hepatocellular carcinoma + neoplastic nodule, dosed 80 weeks, study length 92 weeks) 228 mg/kg/day; (mouse, strain B6C3F1, males, in feed, site: liver, lesion: hepatocellular adenoma, dosed 103 weeks, study length 103 weeks) 18300 mg/kg/day; (mouse, strain B6C3F1, males, in feed, site: liver, lesion: hepatocellular carcinoma + neoplastic nodule, dosed 80 weeks, study length 90 weeks) 280 mg/kg/day; (mouse, strain B6C3F1, males, in feed, site: liver, lesion: hepatocellular carcinoma + neoplastic nodule, dosed 80 weeks, study length 92 weeks) 228 mg/kg/day; (mouse, strain B6C3F1, males, in feed, site: liver, lesion: hepatocellular carcinoma, dosed 80 weeks, study length 90 weeks) 534 mg/kg/day. Further, the TD50 (mouse, strain B6C3F1, males, in feed, site: liver, lesion: hepatocellular carcinoma, dosed 80 weeks, study length 92 weeks) was 466 mg/kg/day; the TD50 (mouse, strain B6C3F1, males, in feed, site: liver, lesion: hepatocellular carcinoma, dosed 103 weeks, study length 103 weeks) stood at 1530 mg/kg/day; the TD50 (mouse, strain B6C3F1, males, in feed, site: liver, lesion: neoplastic nodule, dosed 80 weeks, study length 90 weeks) was 1770 mg/kg/day; the TD50 (mouse, strain B6C3F1, males, in feed, site: liver, lesion: several types, types named in the paper, dosed 103 weeks, study length 103 weeks) stood at 1150 mg/kg/day; the TD50 (mouse, strain B6C3F1, males, in feed, site: lung, lesion: alveolar/bronchiolar adenoma + alveolar/bronchiolar carcinoma, dosed 80 weeks, study length 92 weeks) was 401000 mg/kg/day; the TD50 (rat, strain Osborne-Mendel, females, in feed, site: adrenal gland, lesion: cortical adenoma, dosed 80 weeks, study length 109 weeks) was 2280 mg/kg/day. For the same compound, the TD50 by setting is: (rat, strain Osborne-Mendel, females, in feed, site: pituitary gland, lesion: chromophobe adenoma, dosed 80 weeks, study length 111 weeks) 1580 mg/kg/day (inactive); (rat, strain Osborne-Mendel, females, in feed, site: thyroid gland, lesion: c-cell adenoma, dosed 80 weeks, study length 109 weeks) 1920 mg/kg/day. In addition, the carcinogen call (rat, strain Osborne-Mendel, males, in feed, site: any site (literature study), lesion: several types, types named in the paper, dosed 80 weeks, study length 111 weeks) was “negative (inactive)”.

`CNC(=S)N(C)C`: the TD50 is, setting by setting: (mouse, strain B6C3F1, females, in feed, site: any site (literature study), lesion: several types, types named in the paper, dosed 77 weeks, study length 91 weeks) 1970 mg/kg/day (inactive); (mouse, strain B6C3F1, females, in feed, site: lung, lesion: alveolar/bronchiolar adenoma + alveolar/bronchiolar carcinoma, dosed 77 weeks, study length 91 weeks) 1260 mg/kg/day; (mouse, strain B6C3F1, males, in feed, site: lung, lesion: alveolar/bronchiolar adenoma + alveolar/bronchiolar carcinoma, dosed 77 weeks, study length 91 weeks) 478 mg/kg/day; (rat, strain Fischer 344, females, in feed, site: any site (literature study), lesion: several types, types named in the paper, dosed 77 weeks, study length 106 weeks) 17.4 mg/kg/day; (rat, strain Fischer 344, females, in feed, site: thyroid gland, lesion: follicular-cell adenoma + follicular-cell carcinoma, dosed 77 weeks, study length 106 weeks) 25.8 mg/kg/day; (rat, strain Fischer 344, females, in feed, site: thyroid gland, lesion: follicular-cell carcinoma, dosed 77 weeks, study length 106 weeks) 45 mg/kg/day. Besides, the carcinogen call reads like this: (mouse, strain B6C3F1, males, in feed, site: any site (literature study), lesion: several types, types named in the paper, dosed 77 weeks, study length 91 weeks) “negative (inactive)”; (rat, strain Fischer 344, males, in feed, site: any site (literature study), lesion: several types, types named in the paper, dosed 77 weeks, study length 106 weeks) “negative (inactive)”.

In turn, `CCC(CC)C(=O)NC(N)=O` had a TD50 (rat, strain Fischer 344, males, in feed, site: kidney, lesion: tubular-cell adenoma, dosed 71 weeks, study length 71 weeks) of 30.4 mg/kg/day.

For the origin of these results see PubChem BioAssay AID1745844 (Carcinogenic Potency Database (CPDB), 2022).
